Measured values: BigSolDB 2.1

CO[C@H]1/C=C/O[C@@]2(C)Oc3c(C)c(O)c4c(O)c(c(/C=N/N5CCN(C)CC5)c(O)c4c3C2=O)NC(=O)/C(C)=C\C=C\[C@H](C)[C@H](O)[C@@H](C)[C@@H](O)[C@@H](C)[C@H](OC(C)=O)[C@@H]1C
solubility (mole fraction)
Details | in ethanol | in ethyl acetate | in eugenol | in isopropanol | in isopropyl myristate | in limonene | in sec-butanol | in transcutol | in triacetin
298.2 K | 0.00011 | 0.00054 | 0.00028 | 0.00073 | 0.0031 | 0.0023 | 0.00048 | 0.00097 | 0.00049
303.2 K | 0.00016 | 0.00074 | 0.00031 | 0.00089 | 0.0038 | 0.0036 | 0.00051 | 0.0013 | 0.00052
308.2 K | 0.00023 | 0.00088 | 0.00039 | – | 0.0043 | 0.0052 | 0.00059 | 0.0025 | 0.00072
313.2 K | 0.00036 | 0.0091 | 0.00043 | 0.0016 | 0.0047 | 0.0085 | 0.00076 | 0.0049 | 0.00073
318.2 K | 0.00053 | 0.013 | 0.00059 | 0.0017 | – | – | – | 0.018 | 0.00088

Details | solubility (mole fraction)
in span 80, 298.2 K | 0.00058
in span 80, 303.2 K | 0.00064
in span 80, 308.2 K | 0.00079
in span 80, 313.2 K | 0.00085
in span 80, 318.2 K | 0.00099
